For the first assay, the target named is human VPS34 (Homo sapiens (Human), UniProt Q8NEB9). Put plainly: Human VPS34 enzyme assay (Adapta TR-FRET ADP detection). Also noted: Percent Inhibition: dose or concentration left out as unconfirmed.
Sequence of human VPS34 (Q8NEB9 whole entry): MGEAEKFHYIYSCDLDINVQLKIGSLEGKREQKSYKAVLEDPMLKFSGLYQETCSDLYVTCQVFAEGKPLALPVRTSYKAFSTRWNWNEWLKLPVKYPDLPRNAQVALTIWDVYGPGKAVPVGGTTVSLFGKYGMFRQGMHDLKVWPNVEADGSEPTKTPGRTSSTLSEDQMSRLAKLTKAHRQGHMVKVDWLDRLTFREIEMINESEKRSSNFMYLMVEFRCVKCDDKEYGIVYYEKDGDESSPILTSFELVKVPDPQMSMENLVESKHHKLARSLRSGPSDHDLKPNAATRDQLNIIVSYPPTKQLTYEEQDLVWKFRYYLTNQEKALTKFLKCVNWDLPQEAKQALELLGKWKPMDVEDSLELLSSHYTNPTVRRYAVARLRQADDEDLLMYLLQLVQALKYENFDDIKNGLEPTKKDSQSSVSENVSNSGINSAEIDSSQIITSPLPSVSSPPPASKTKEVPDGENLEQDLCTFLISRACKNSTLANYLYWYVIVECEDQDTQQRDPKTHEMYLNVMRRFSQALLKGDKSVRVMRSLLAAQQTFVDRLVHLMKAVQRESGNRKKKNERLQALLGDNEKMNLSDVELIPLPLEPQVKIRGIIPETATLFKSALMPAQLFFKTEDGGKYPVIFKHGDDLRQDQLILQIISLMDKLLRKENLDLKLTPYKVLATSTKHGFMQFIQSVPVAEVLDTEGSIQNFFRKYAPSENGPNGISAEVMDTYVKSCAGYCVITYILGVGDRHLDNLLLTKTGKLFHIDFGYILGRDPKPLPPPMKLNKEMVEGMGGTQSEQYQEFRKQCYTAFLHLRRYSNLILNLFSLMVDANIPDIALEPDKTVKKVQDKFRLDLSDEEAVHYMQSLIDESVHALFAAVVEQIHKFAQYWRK
Settings: not given
The format is biochemical.
Take `CC(=O)Nc1cc(-c2cnc(Cl)c(S(=O)(=O)N[C@H](CO)c3ccccc3)c2)ccn1` [Compound I-330, N-(6-chloro-5-{[(1S)-2-hydroxy-1-phenylethyl]sulfamoyl}-3,4′-bipyridin-2′-yl)acetamide]: the “Percent Inhibition” value was over 99%. On the same count and under the same terms, for `CC(=O)Nc1cc(-c2cnc(C)c(NS(=O)(=O)c3nccn3C)c2)ccn1` [Compound I-92] the value was over 99%. The same measure, in the same setting: the figure for `CNc1ncc(-c2ccnc(NC(C)=O)c2)cc1NS(=O)(=O)c1ccc(F)cc1F` [Compound I-31, N-[5-{[(2,4-difluorophenyl)sulfonyl]amino}-6-(methylamino)-3,4′-bipyridin-2′-yl)acetamide] is over 99%.

Still in this assay, the particulars now being: IC50 range class.
Compound `COc1ncc(-c2ccnc(NC(C)=O)c2)cc1S(=O)(=O)Nc1cccc(C(F)(F)F)c1` [Compound I-329, N-(6-methoxy-5-{[3-(trifluoromethyl)phenyl]sulfamoyl}-3,4′-bipyridin-2′-yl)acetamide] yielded an IC50 of 10 to 50 nM. On the same count and under the same terms, for `CC(=O)Nc1cc(-c2cnc(N)c(N3CCCC3=O)c2)ccn1` [Compound I-337, N-[6-amino-5-(2-oxopyrrolidin-1-yl)-3,4′-bipyridin-2′-yl]acetamide] the value was over 100 nM; for `CC(=O)Nc1cc(-c2cncc(NC(=O)c3ccccc3)c2)ccn1` [Compound I-13, N-(2′-acetamido-3,4′-bipyridin-5-yl)benzamide], over 100 nM. Take `CC(=O)Nc1cc(-c2cnc(N)c(S(=O)(=O)N(C)CC3CC3)c2)ccn1` [Compound I-110, N-{6-amino-5-[(cyclopropylmethyl)(methyl)sulfamoyl]-3,4′-bipyridin-2′-yl}acetamide]: the IC50 was under 10 nM. Still for that read-out and setting: for `Cc1nccc(Nc2cc(-c3cnc(Cl)c(NS(=O)(=O)N(C)C)c3C)ccn2)n1` [Compound I-381, N′-{6-chloro-4-methyl-2′-[(2-methylpyrimidin-4-yl)amino]-3,4′-bipyridin-5-yl}-N,N-dimethylsulfuric diamide] the value was under 10 nM; for `Cc1nccc(Nc2cc(-c3cnc(Cl)c(C(=O)N4CCC4)c3)ccn2)n1` [Compound I-232, azetidin-1-yl[6-chloro-2′-[(2-methylpyrimidin-4-yl)amino]-3,4′-bipyridin-5-yl}methanone], 10 to 50 nM. The same measure, in the same setting: for `Cc1ncc(-c2ccnc(N)c2)cc1NS(=O)(=O)N(C)C` [Compound I-281, N′-(2′-amino-6-methyl-3,4′-bipyridin-5-yl)-N,N-dimethylsulfuric diamide] the value was over 100 nM; for `Cc1nccc(Nc2cc(-c3cncc(C(C)Oc4ccccc4F)c3)ccn2)n1` (stereo not drawn) [Compound I-422, 5-[1-(2-fluorophenoxy)ethyl]-N-(2-methylpyrimidin-4-yl)-3,4′-bipyridin-2′-amine], 10 to 50 nM; for `CC(=O)Nc1cc(-c2cnc(Cl)c(NS(=O)(=O)c3ccc(C#N)cc3)c2C)ccn1` [Compound I-429, N-(6-chloro-5-{[(4-cyanophenyl)sulfonyl]amino}-4-methyl-3,4′-bipyridin-2′-yl)acetamide], 10 to 50 nM.

In turn, `CC(=O)Nc1cc(-c2cnc(N)c(C(=O)Nc3cccc(F)c3)c2)ccn1` [Compound I-82, 2′-acetamido-6-amino-N-(3-fluorophenyl)-3,4′-bipyridine-5-carboxamide] yielded an IC50 of 10 to 50 nM. Take `CC(=O)Nc1cc(-c2cnc(C)c(NS(=O)(=O)c3ccc(F)cc3F)c2)cc(C)n1` [Compound I-414, N-(5-{[(2,4-difluorophenyl)sulfonyl]amino}-6,6′-dimethyl-3,4′-bipyridin-2′-yl)acetamide]: the IC50 lay within 50 to 100 nM.

`CC(=O)Nc1cc(-c2cnc(N)c(C(=O)N3CCC3)c2)ccn1` [Compound I-200, N-[6-amino-5-(azetidin-1-ylcarbonyl)-3,4′-bipyridin-2′-yl]acetamide] showed an IC50 of under 10 nM.

`COc1nccc(Nc2cc(-c3cncc(C(=O)N(C)C45CC(C4)C5)c3)ccn2)n1` [Compound I-245, N-(bicyclo[1.1.1]pent-1-yl)-2′-[(2-methoxypyrimidin-4-yl)amino]-N-methyl-3,4′-bipyridine-5-carboxamide]: the IC50 was in the range of 10 to 50 nM. `Cc1ncc(-c2ccnc(NC(=O)C3CC3(F)F)c2)cc1NS(=O)(=O)c1ccc(F)cc1F` (single isomer, unassigned) [Compound I-267a, N-(5-{[(2,4-difluorophenyl)sulfonyl]amino}-6-methyl-3,4′-bipyridin-2′-yl)-2,2-difluorocyclopropanecarboxamide]: the IC50 lay in the range of 10 to 50 nM. Still for that read-out and setting: the figure for `CC(=O)Nc1cc(-c2cncc(/C=C/C(=O)c3ccc(F)cc3)c2)ccn1` [Compound I-188, N-{5-[(1E)-3-(4-fluorophenyl)-3-oxoprop-1-en-1-yl]-3,4′-bipyridin-2′-yl}acetamide] is 50 to 100 nM; for `COc1ncc(-c2ccnc(NC(C)=O)c2)cc1S(=O)(=O)Nc1ccccc1` [Compound I-39, N-[6-methoxy-5-(phenylsulfamoyl)-3,4′-bipyridin-2′-yl]acetamide] it is under 10 nM; for `CC(=O)Nc1cc(-c2cnc(Cl)c(S(=O)(=O)N[C@H](CO)c3ccccc3)c2)ccn1` [Compound I-330, N-(6-chloro-5-{[(1S)-2-hydroxy-1-phenylethyl]sulfamoyl}-3,4′-bipyridin-2′-yl)acetamide] it is over 100 nM. Still for that read-out and setting: for `CC(=O)Nc1cc(-c2cnc(Cl)c(S(=O)(=O)NC(CO)c3ccccc3)c2)ccn1` (stereo in doubt) [Compound I-403, N-(6-chloro-5-{[(1R)-2-hydroxy-1-phenylethyl]sulfamoyl}-3,4′-bipyridin-2′-yl)acetamide] the value was over 100 nM; for `O=C(c1cncc(-c2ccnc(Nc3ccnc(C4CC4)n3)c2)c1)N1CC(F)(F)C1` [Compound I-413, (2′-[(2-cyclopropylpyrimidin-4-yl)amino]-3,4′-bipyridin-5-yl)(3,3-difluoroazetidin-1-yl)methanone], 10 to 50 nM. Same read-out and setting: for `COc1ccc(S(=O)(=O)Nc2cc(-c3ccnc(NC(C)=O)c3)cnc2C)cc1` [Compound I-165, N-(5-{[(4-methoxyphenyl)sulfonyl]amino}-6-methyl-3,4′-bipyridin-2′-yl)acetamide] the value was under 10 nM.

In turn, `CC(=O)Nc1cc(-c2cnc(Cl)c(N3CCCN(C)S3(=O)=O)c2)ccn1` [Compound I-467, N-[6-chloro-5-(6-methyl-1,1-dioxido-1,2,6-thiadiazinan-2-yl)-3,4′-bipyridin-2′-yl)acetamide] had a 50% inhibitory concentration (IC50) of under 10 nM. Still for that read-out and setting: the figure for `Cc1ccc2ccc(Nc3cc(-c4cnc(C)c(NS(=O)(=O)c5ccc(F)cc5F)c4)ccn3)nc2n1` [Compound I-235, 2,4-difluoro-N-{6-methyl-2′-[(7-methyl-1,8-naphthyridin-2-yl)amino]-3,4′-bipyridin-5-yl}benzenesulfonamide] is 10 to 50 nM; for `CNc1ncc(-c2ccnc(NC(C)=O)c2)cc1NS(=O)(=O)c1ccc(F)cc1F` [Compound I-31, N-[5-{[(2,4-difluorophenyl)sulfonyl]amino}-6-(methylamino)-3,4′-bipyridin-2′-yl)acetamide] it is 10 to 50 nM; for `COc1nc(C)nc(Nc2cc(-c3cnc(C)c(NS(=O)(=O)c4ccc(F)cc4F)c3)ccn2)n1` [Compound I-375, 2,4-difluoro-N-{2′-[(4-methoxy-6-methyl-1,3,5-triazin-2-yl)amino]-6-methyl-3,4′-bipyridin-5-yl}benzenesulfonamide] it is under 10 nM.

In the case of `CC(=O)Nc1cc(-c2cnc(C)c(N3CC=CS3(=O)=O)c2)ccn1` [Compound I-416, N-[5-(1,1-dioxidoisothiazol-2(3H)-yl)-6-methyl-3,4′-bipyridin-2′-yl]acetamide], the half-maximal inhibitory concentration (IC50) fell in the range of 10 to 50 nM.

Compound `CC(=O)Nc1cc(-c2cnc3[nH]cc(S(=O)(=O)c4ccccc4)c3c2)ccn1` [Compound I-176, N-{4-[3-(phenylsulfonyl)-1H-pyrrolo[2,3-b]pyridin-5-yl]pyridin-2-yl}acetamide] registered an IC50 of 10 to 50 nM. Same read-out and setting: for `CCc1c(-c2ccnc(NC(=O)C3CC3)c2)cnc(Cl)c1NS(=O)(=O)c1ccc(F)cc1F` [Compound I-278, N-(6-chloro-5-{[(2,4-difluorophenyl)sulfonyl]amino}-4-ethyl-3,4′-bipyridin-2′-yl)cyclopropanecarboxamide] the value was 10 to 50 nM; for `CC(=O)Nc1cc(-c2cnc(N)c(S(=O)(=O)Cc3ccc(F)cc3F)c2)ccn1` [Compound I-138, N-[6-amino-5-[(2,4-difluorobenzyl)sulfonyl]-3,4′-bipyridin-2′-yl]acetamide], 10 to 50 nM; for `CCN(CC)S(=O)(=O)c1cncc(-c2ccnc(NC(C)=O)c2)c1` [Compound I-120, N-[5-(diethylsulfamoyl)-3,4′-bipyridin-2′-yl]acetamide], under 10 nM.

For `Cc1ncc(-c2ccnc(Nc3ccc(C#N)cn3)c2)cc1NS(=O)(=O)c1ccc(F)cc1F` [Compound I-228, N-{2′-[(5-cyanopyridin-2-yl)amino]-6-methyl-3,4′-bipyridin-5-yl}-2,4-difluorobenzenesulfonamide], the IC50 is under 10 nM.

On to `Cc1nccc(Nc2cc(-c3cnc(C)c(C(=O)N(C)C45CC(C4)C5)c3)ccn2)n1` [Compound I-275, N-(bicyclo[1.1.1]pent-1-yl)-N,6-dimethyl-2′-[(2-methylpyrimidin-4-yl)amino]-3,4′-bipyridine-5-carboxamide], for which the concentration for half-maximal inhibition (IC50) lay within 10 to 50 nM.

The compound `Cc1nc(Nc2cc(-c3cnc(C)c(NS(=O)(=O)N(C)C)c3)ccn2)ccc1C#N` [Compound I-229, N-{2′-[(5-cyano-6-methylpyridin-2-yl)amino]-6-methyl-3,4′-bipyridin-5-yl}-N,N-dimethylsulfuric diamide] had an IC50 of under 10 nM. Compound `CC(=O)Nc1cc(-c2cnc(N)c(C(=O)NC34CC(C3)C4)c2)ccn1` [Compound I-187, 2′-acetamido-6-amino-N-(bicyclo[1.1.1]pent-1-yl)-3,4′-bipyridine-5-carboxamide] had an IC50 of under 10 nM. Still for that read-out and setting: the figure for `CC(=O)Nc1cc(-c2cnc(C)c(NS(=O)(=O)c3ccc(C(F)(F)F)cc3)c2)ccn1` [Compound I-90, N-[6-methyl-5-({[4-trifluoromethyl)phenyl]sulfonyl}amino-3,4′-bipyridin-2′-yl]acetamide] is under 10 nM; for `CC(=O)Nc1cc(-c2cnc(C)c(C(=O)N(C)C)c2)ccn1` [Compound I-75, 2′-acetamido-N,N,6-trimethyl-3,4′-bipyridin-5-carboxamide] it is 50 to 100 nM. The same measure, in the same setting: the figure for `CC(=O)Nc1cc(-c2cnc(N)c(C(=O)NC3CC3)c2)ccn1` [Compound I-169, 2′-acetamido-6-amino-N-cyclopropyl-3,4′-bipyridine-5-carboxamide] is 10 to 50 nM.

The values are drawn from patent publication US9751854B2 (Millennium Pharmaceuticals, Inc., priority 2014, dated 2017).
